How the values were obtained:
[1] = Observation of toxic effects at the test dosages; type: in vivo; settings: at the test dosage 12.5 mg/kg i.d., cats
Description: (§1) Cats of either sex were anaesthetized by i.p. injection of urethane/chloralosc (120/60 mg/kg). The intraduodenal (i.d.) administration of compounds was conducted by means of a plastic.catheter which was inserted into the duodenum following midline incision at the abdominal cavity.

gastrocnemius muscle = assay: Measurement of muscle surface pO2 (multiwire-surface electrode, one femoral artery ligated to induce ischaemia); type: in vivo, Cats; settings: 12.5 mg/kg i.d., suspension in Methocel, n = 4; for Cs (significance coefficient = number of measuring sites with significant pO2 increase per total number of measuring sites) / ΔpO2 (mean pO2 increase in experiments with significant pO2 increase): anaesthetized cats; for E (efficiency-index = Cs x ΔpO2): control values E between 0.1 and 1.2 Torr
Description: as §1
Measurement of muscle surface p02. The skin above the measuring site (3-4 mm in diameter) was removed and one multiwire-surface electrode (Eschweiler, Kiel) was placed on the gastrocnemius muscle of each hindlimb. The femoral artery in one hindlimb was ligated in order to induce ischaemia. Muscle temperature was controlled by means of a thermocouple (Ellab, Copenhagen). The electrode current was measured every 6 to 8 s and collected for periods of 4 min (Hewlett-Packard programmable data logger system 3051 A). After each period, mean value and standard deviation was calculated.

In the case of `Cn1cnc2c1c(=O)n(CCCCC1(C)OCCO1)c(=O)n2C` [2-Methyl-2-(theobrominyl-butyl-4)-1,3-dioxalane], the toxic effects [1] is reported as “No toxic effects were observed”, the “Cs (significance coefficient = number of measuring sites with significant pO2 increase per total number of measuring sites)” value (gastrocnemius muscle; hypoxic tissue) is reported as 1 and the “ΔpO2 (mean pO2 increase in experiments with significant pO2 increase)” value (gastrocnemius muscle; hypoxic tissue) is reported as 3.7 Torr. For the same compound, the “E (efficiency-index = Cs x ΔpO2)” value (gastrocnemius muscle; hypoxic tissue) was 3.7 Torr, the “Cs (significance coefficient = number of measuring sites with significant pO2 increase per total number of measuring sites)” value (gastrocnemius muscle; normoxic tissue) was 1 and the “ΔpO2 (mean pO2 increase in experiments with significant pO2 increase)” value (gastrocnemius muscle; normoxic tissue) was 4.8 Torr. For the same compound, the “E (efficiency-index = Cs x ΔpO2)” value (gastrocnemius muscle; normoxic tissue) was 4.8 Torr.

— patent publication EP0017478A1, “Dialkoxy- and dioxacycloalkyl-alkyltheobromines, pharmaceutical compositions containing them and their preparation” (BEECHAM - WUELFING GmbH & Co. KG, priority 1979, dated 1980)
